From article PMC7926793, “Synthesis and Biological Evaluation of 1-(Diarylmethyl)-1H-1,2,4-triazoles and 1-(Diarylmethyl)-1H-imidazoles as a Novel Class of Anti-Mitotic Agent for Activity in Breast Cancer” (Pharmaceuticals, 2021)
Values joined by “and” are separate entries in the source; they are usually repeats but may differ in a detail not shown here. Equal values may be shown once.

Key:
[1] = tested on: HL-60 (TB); test: NCI 60 cell line screen (Leukemia); type: cell-based, human
[2] = tested on: EKVX; test: NCI 60 cell line screen (Non-Small Cell Lung Cancer); type: cell-based, human
[3] = tested on: NCI-H226; test: as above; type: cell-based, human
[4] = tested on: NCI-H23; test: as above; type: cell-based, human
[5] = tested on: NCI-H332M; test: as above; type: cell-based, human
[6] = tested on: NCI-H552; test: as above; type: cell-based, human
[7] = tested on: COLO 205; test: NCI 60 cell line screen (Colon Cancer); type: cell-based, human
[8] = tested on: SNB-19; test: NCI 60 cell line screen (CNS Cancer); type: cell-based, human
[9] = tested on: DU-145; test: NCI 60 cell line screen (Prostate cancer); type: cell-based, human
[10] = tested on: MALME-3M; test: NCI 60 cell line screen (Melanoma); type: cell-based, human; conditions: single dose 10 µM
[11] = tested on: SK-MEL-2; test: NCI 60 cell line screen (Melanoma); type: cell-based, human
[12] = tested on: SK-MEL-28; test: NCI 60 cell line screen (Melanoma); type: cell-based, human; conditions: SK-MEL-28, single dose 10 µM
[13] = tested on: SK-MEL-5; test: NCI 60 cell line screen (Melanoma); type: cell-based, human
[14] = tested on: UACC-257; test: NCI 60 cell line screen (Melanoma); type: cell-based, human
[15] = tested on: OVCAR-4; test: NCI 60 cell line screen (Ovarian Cancer); type: cell-based, human
[16] = tested on: OVCAR-5; test: NCI 60 cell line screen (Ovarian Cancer); type: cell-based, human
[17] = tested on: NCI/ADR-RES; test: NCI 60 cell line screen (Ovarian Cancer); type: cell-based, human
[18] = tested on: 786-0; test: NCI 60 cell line screen (Renal Cancer); type: cell-based, human
[19] = tested on: A498; test: NCI 60 cell line screen (Renal Cancer); type: cell-based, human
[20] = tested on: ACHN; test: NCI 60 cell line screen (Renal Cancer); type: cell-based, human
[21] = tested on: CAKI-1; test: NCI 60 cell line screen (Renal Cancer); type: cell-based, human
[22] = tested on: TK-10; test: NCI 60 cell line screen (Renal Cancer); type: cell-based, human
[23] = tested on: MCF-7; test: NCI 60 cell line screen (Breast Cancer); type: cell-based, human
[24] = tested on: MDA-MB-231/ATCC; test: NCI 60 cell line screen (Breast Cancer); type: cell-based, human
[25] = tested on: MDA-MB-468; test: NCI 60 cell line screen (Breast Cancer); type: cell-based, human
[26] = biological target: T1, CYP19 (aromatase) (Homo sapiens, UniProt P11511); test: cytochrome P450 assay (DBF fluorescence)
T1 sequence (P11511 1-503): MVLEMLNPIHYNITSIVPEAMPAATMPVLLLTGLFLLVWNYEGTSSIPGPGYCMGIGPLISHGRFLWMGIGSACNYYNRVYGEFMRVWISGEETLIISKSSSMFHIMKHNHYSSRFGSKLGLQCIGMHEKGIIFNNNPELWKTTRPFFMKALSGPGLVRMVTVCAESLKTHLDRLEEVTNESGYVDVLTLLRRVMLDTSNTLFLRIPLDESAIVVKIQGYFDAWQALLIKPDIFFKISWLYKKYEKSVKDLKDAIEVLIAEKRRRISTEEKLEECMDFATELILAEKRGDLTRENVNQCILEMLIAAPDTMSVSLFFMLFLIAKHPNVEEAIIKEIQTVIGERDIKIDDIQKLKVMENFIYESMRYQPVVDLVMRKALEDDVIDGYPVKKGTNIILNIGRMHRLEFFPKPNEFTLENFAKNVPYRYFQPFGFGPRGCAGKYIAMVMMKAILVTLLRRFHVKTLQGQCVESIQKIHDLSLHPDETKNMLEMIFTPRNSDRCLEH

[27] = biological target: T2, CYP1A1 (Homo sapiens, UniProt P04798); test: cytochrome P450 assay (DBF fluorescence)
T2 sequence (P04798 1-512): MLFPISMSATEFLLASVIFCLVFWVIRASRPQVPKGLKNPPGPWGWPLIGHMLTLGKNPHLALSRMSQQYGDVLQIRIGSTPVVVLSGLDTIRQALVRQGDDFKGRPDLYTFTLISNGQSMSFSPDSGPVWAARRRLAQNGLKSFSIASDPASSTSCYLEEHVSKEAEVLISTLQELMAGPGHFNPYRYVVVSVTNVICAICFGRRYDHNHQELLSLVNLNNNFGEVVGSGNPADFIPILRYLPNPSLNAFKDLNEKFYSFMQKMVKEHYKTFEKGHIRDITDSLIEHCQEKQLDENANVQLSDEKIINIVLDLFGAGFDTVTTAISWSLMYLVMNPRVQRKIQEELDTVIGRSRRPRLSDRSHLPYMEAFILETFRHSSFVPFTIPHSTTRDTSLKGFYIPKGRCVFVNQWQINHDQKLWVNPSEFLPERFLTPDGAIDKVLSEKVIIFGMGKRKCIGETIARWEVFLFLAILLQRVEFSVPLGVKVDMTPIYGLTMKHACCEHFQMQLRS

Compound: COc1ccc(C(c2cc(OC)c(OC)c(OC)c2)n2cncn2)cc1O (centres unmarked) [19e, 5-((1H-1,2,4-Triazol-1-yl)(3,4,5-Trimethoxyphenyl)methyl)-2-Methoxyphenol]
- GI50 ([1]; Homo sapiens, NCI 5 dose assay): 261 nM
- Growth percentage ([1]; single dose 10 µM): -32.53%
- GI50 ([2]; Homo sapiens, NCI 5 dose assay): 2240 nM
- Growth percentage ([2]; single dose 10 µM): 39.79%
- GI50 ([3]; Homo sapiens, NCI-H226, NCI 5 dose assay): 1430 nM
- Growth percentage ([3]; NCI-H226, single dose 10 µM): 73.39%
- GI50 ([4]; Homo sapiens, NCI-H23, NCI 5 dose assay): 977 nM
- Growth percentage ([4]; NCI-H23, single dose 10 µM): 39.85%
- GI50 ([5]; Homo sapiens, NCI 5 dose assay): 696 nM
- Growth percentage ([5]; single dose 10 µM): 51.45%
- GI50 ([6]; Homo sapiens, 60 cell, NCI-H552, NCI 5 dose assay): 395 nM
- Growth percentage ([6]; NCI-H552, single dose 10 µM): 12.78%
- Growth percentage ([7]; COLO 205, single dose 10 µM): -1.65%
- GI50 ([7]; Homo sapiens, COLO 205, NCI 5 dose assay): 332 nM
- GI50 ([8]; Homo sapiens, SNB-19, NCI 5 dose assay): 578 nM
- Growth percentage ([8]; SNB-19, single dose 10 µM): 33.31%
- Growth percentage ([9]; DU-145, single dose 10 µM): 19.64%
- GI50 ([9]; Homo sapiens, DU-145, NCI 5 dose assay): 530 nM
- Growth percentage [10]: 70.24%
- GI50 ([11]; Homo sapiens, SK-MEL-2, NCI 5 dose assay): 361 nM
- Growth percentage ([11]; SK-MEL-2, single dose 10 µM): 55.94%
- Growth percentage [12]: 57.04%
- GI50 ([13]; Homo sapiens, SK-MEL-5, NCI 5 dose assay): 440 nM
- Growth percentage ([13]; SK-MEL-5, single dose 10 µM): 14.60%
- GI50 ([14]; Homo sapiens, UACC-257, NCI 5 dose assay): > 100000 nM
- Growth percentage ([14]; UACC-257, single dose 10 µM): 44.45%
- GI50 ([15]; Homo sapiens, OVCAR-4, NCI 5 dose assay): 3020 nM
- Growth percentage ([15]; OVCAR-4, single dose 10 µM): 72.08%
- GI50 ([16]; Homo sapiens, OVCAR-5, NCI 5 dose assay): 1990 nM
- Growth percentage ([16]; OVCAR-5, single dose 10 µM): 72.98%
- GI50 ([17]; Homo sapiens, NCI 5 dose assay): 1180 nM
- Growth percentage ([17]; single dose 10 µM): 1.80%
- Growth percentage ([18]; 786-0, single dose 10 µM): 28.10%
- GI50 ([18]; Homo sapiens, 786-0, NCI 5 dose assay): 475 nM
- Growth percentage ([19]; A498, single dose 10 µM): 9.66%
- GI50 ([19]; Homo sapiens, A498, NCI 5 dose assay): 324 nM
- GI50 ([20]; Homo sapiens, NCI 5 dose assay): 653 nM
- Growth percentage ([20]; single dose 10 µM): 52.36%
- Growth percentage ([21]; CAKI-1, single dose 10 µM): 40.43%
- GI50 ([21]; Homo sapiens, CAKI-1, NCI 5 dose assay): 567 nM
- GI50 ([22]; Homo sapiens, TK-10, NCI 5 dose assay): > 100000 nM
- Growth percentage ([22]; TK-10, single dose 10 µM): 61.31%
- GI50 ([23]; Homo sapiens, MCF7, MCF-7, NCI 5 dose assay): 347 nM
- Growth percentage ([23]; MCF-7, single dose 10 µM): 17.87%
- GI50 ([24]; Homo sapiens, NCI 5 dose assay): 1500 nM
- Growth percentage ([24]; single dose 10 µM): 43.15%
- GI50 ([25]; Homo sapiens, MDA-MB-468, NCI 5 dose assay): 371 nM
- Growth percentage ([25]; MDA-MB-468, single dose 10 µM): 7.88%
- IC50 ([26]; IC50 CYP19): 29000 nM and 29600 nM
- inhibition at 20 µg/mL ([26]; read-out: % Inhibition at 20 µg/mL CYP19): 85.3%
- inhibition at 20 µM ([26]; read-out: inhibition of CYP19): > 85%
- IC50 ([27]; IC50 CYP1A1): > 53800 nM
- inhibition at 25 min, 20 µg/mL ([27]; human, recombinant CYP1A1, pH 7.4, probe dibenzylfluorescein (DBF), 2.0 μM): 18.1%
